Measurements taken from PubChem BioAssay (NCI).
Values joined by “and” are separate entries in the source; they are usually repeats but may differ in a detail not shown here. Equal entries are not always repeated.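 A five-concentration, 48-hour dose response in 96-well plates underlies each endpoint, interpolated linearly between surrounding concentrations. GI50: concentration for 50% inhibition of growth. Definition used: TGI = concentration required for complete inhibition of growth.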

Key:
Assay in all cases: NCI anticancer screen, dose series, 48 h
[1] = test system: LOX IMVI melanoma
[2] = test system: NCI/ADR-RES ovarian
[3] = test system: SF-268 CNS
[4] = test system: SF-539 CNS
[5] = test system: T-47D breast
[6] = test system: A549 NSCLC
[7] = test system: SNB-75 CNS
[8] = test system: UO-31 renal
[9] = test system: DU-145 prostate
[10] = test system: OVCAR-4 ovarian

SMILES	GI50 [1]	TGI [1]	GI50 [2]	TGI [2]	GI50 [3]	TGI [3]	GI50 [4]	TGI [4]	GI50 [5]	TGI [5]	GI50 [6]	TGI [6]	GI50 [7]	TGI [7]	GI50 [8]	TGI [8]	GI50 [9]	TGI [9]	GI50 [10]	TGI [10]
CC1(C)[C@@H](OC(N)=O)[C@H]2O[C@H]2[C@]2(C=O)[C@H]3CC[C@]4(C)[C@@H](c5ccc(=O)oc5)[C@@H](Cl)C[C@]4(O)C3=CC[C@@H]12	0.00451 µM	0.00886 µM	0.00589 µM	0.0142 µM	0.0037 µM	0.00749 µM	0.00439 µM	0.00833 µM	0.00656 µM	0.0181 µM	0.00442 µM	0.00858 µM	0.00449 µM	0.00972 µM	0.00572 µM	0.0163 µM	0.00437 µM	0.00798 µM	0.00555 µM	0.0139 µM
COc1ccc(C(=O)COc2ccc(/C=C3\COc4ccc(OC)cc4C3=O)cc2)cc1	6.59 µM	24.2 µM	12 µM	32.3 µM	23.7 µM	60.5 µM	25.2 µM	65.6 µM	19.1 µM	96.6 µM	> 100 µM	> 100 µM	20 µM	69.9 µM	18.4 µM	61.5 µM	31 µM	> 100 µM	17.4 µM	69.2 µM
CCc1nc(C(N)=O)c(Nc2ccc(N3CCC(N4CCN(C)CC4)CC3)c(OC)c2)nc1NC1CCOCC1	2.12 µM and 0.337 µM and 2.82 µM	17.6 µM and > 2.34 µM and 19.4 µM	4.33 µM and 3.75 µM and 5.19 µM	22.2 µM and > 10 µM and 26.8 µM		22.8 µM and > 2.72 µM and 24.5 µM	5.46 µM and 1.05 µM and 7.87 µM	20.3 µM and > 2.27 µM and 22.1 µM	13.2 µM and > 10 µM and 13.4 µM	30 µM and > 10 µM and 32.7 µM	2.35 µM and 0.379 µM and 2.61 µM	15.2 µM and > 10 µM and 16.1 µM	0.598 µM and 0.423 µM and 0.67 µM	5.4 µM and 1.91 µM and 7.74 µM	1.01 µM and 0.282 µM and 1.23 µM	8.61 µM and > 10 µM and 8.63 µM	0.904 µM and 0.359 µM and 0.719 µM	18.5 µM and > 10 µM and 17.3 µM	12.8 µM and > 10 µM and 13.8 µM	27.8 µM and > 10 µM and 32.2 µM
COc1cccc2c(=O)c3c(sc12)c(N1CCNCC1)nc1ccccc13	1.56 µM	3.01 µM	1.75 µM	3.45 µM	1.75 µM	3.45 µM	1.75 µM	3.21 µM	1.9 µM	4.57 µM	1.81 µM	4.26 µM	1.56 µM	2.98 µM	1.07 µM	2.32 µM	1.72 µM	3.19 µM	1.8 µM	3.62 µM
CCn1c(SCc2ccc(C)cc2)nnc1-c1nn(-c2ccc(Cl)cc2Cl)c(-c2ccc(Cl)cc2)c1C	2.72 µM	10.7 µM	3.54 µM	14.6 µM	3.06 µM	14.9 µM	3.02 µM	11.8 µM	0.428 µM	10.1 µM	2.82 µM	11.3 µM	2.21 µM	11.7 µM	2.66 µM	10.8 µM	3.3 µM	13.8 µM	1.79 µM	12.4 µM
CCCCON(OC(=O)c1ccc2ccc3cccc4ccc1c2c34)C(C)=O	16.9 µM	33.1 µM	21.9 µM	60.7 µM	19.5 µM	40.5 µM	18.5 µM	35.6 µM	29.7 µM	> 100 µM	39.1 µM	> 100 µM	19.9 µM	41.7 µM	19.5 µM	42.4 µM	31.1 µM	> 100 µM	23.5 µM	59.9 µM
COc1cc2[nH]c(C(=O)c3cc(OC)c(OC)c(OC)c3)c(N)c2cc1C#CC1CC1	4.33 µM	> 100 µM	2.3 µM	14.4 µM	9.08 µM	> 100 µM	0.815 µM	4.77 µM	3.02 µM	> 100 µM	6.65 µM	> 100 µM	1.02 µM	3.99 µM	2.6 µM	> 100 µM	3.33 µM	> 100 µM	4.01 µM	> 100 µM
O=C(O)C1C(Br)(c2ccccc2)C1(Br)c1ccccc1 (centres undefined)		> 100 µM		> 100 µM		69.7 µM		> 100 µM		> 100 µM		> 100 µM		93.9 µM		47.2 µM		> 100 µM		64.1 µM
ClCC[N+]12CC[N+](CCCl)(CC1)C2		> 100 µM		> 100 µM		> 100 µM		> 100 µM		> 100 µM		> 100 µM		> 100 µM		> 100 µM		> 100 µM		> 100 µM
CC/C=C\C[C@H]1C/C=C2/C(=O)C=C[C@@H]2C/C=C\CCCC(=O)O1	0.273 µM	0.865 µM	0.405 µM	7.32 µM	2.16 µM	9.49 µM	0.855 µM	2.67 µM	1.21 µM	9.33 µM	2.23 µM	9.05 µM	4.02 µM	18 µM	1.13 µM	2.48 µM	0.816 µM	5.79 µM	2.73 µM	16.3 µM
